Assay results as given in patent US20110152501A1, “Activatable Imaging Probes” (THE GENERAL HOSPITAL CORPORATION, priority 2001, published 2011).
Non-standard residues stand in square brackets, D forms with d. Primed or numbered codes have the meaning given here. No end group written: not given here. *: point of attachment. FITC = O=C1OC2(c3ccc(O)cc3Oc3cc(O)ccc32)c2ccc(NC(=S)*)cc21; Pip′ = not defined here

Legend:
Type in all cases: biochemical
MMP-2 [1] = biological target: T1, MMP-2 (Homo sapiens, UniProt P08253); test: Inhibition of MMP-2 mediated probe activation by inhibitors; conditions: 1 mM
T1 construct: purchased Boehringer-Mannheim, Ind
T1 sequence (P08253 110-660): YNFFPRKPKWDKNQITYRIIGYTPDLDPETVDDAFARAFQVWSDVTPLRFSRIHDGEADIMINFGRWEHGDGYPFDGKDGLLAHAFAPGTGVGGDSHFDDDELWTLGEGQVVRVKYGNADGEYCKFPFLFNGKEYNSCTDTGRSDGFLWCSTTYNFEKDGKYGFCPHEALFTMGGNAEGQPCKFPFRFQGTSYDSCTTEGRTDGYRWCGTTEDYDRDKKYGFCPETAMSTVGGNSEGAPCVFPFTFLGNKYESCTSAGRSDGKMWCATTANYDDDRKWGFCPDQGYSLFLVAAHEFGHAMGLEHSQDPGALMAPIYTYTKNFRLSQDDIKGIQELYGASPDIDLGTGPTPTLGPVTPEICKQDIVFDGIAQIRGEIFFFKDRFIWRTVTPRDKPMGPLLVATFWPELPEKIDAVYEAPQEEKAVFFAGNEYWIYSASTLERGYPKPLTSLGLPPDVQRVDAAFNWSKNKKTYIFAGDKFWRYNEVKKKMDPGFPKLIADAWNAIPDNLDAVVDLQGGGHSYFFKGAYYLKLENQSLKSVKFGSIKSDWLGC
Protocol: Using 5 U of MMP-2 and 19 pmol of imaging probe, we performed a dose response study of mediated MMP inhibition up to 0.1 mM of inhibitor.
To determine the range of enzyme activation, a constant amount of imaging probe (26.6 pmol) was incubated with variable amounts of activated MMP-2 and fluorescence was determined after 24 hours. Inhibition experiments were performed by incubating 1 U of purified, activated MMP-2 with 19 pmol NIRF probe (220 pmol Cy 5.5) in the presence of different inhibitors, 1.10 phenanthroline (1 mM, Aldrich, Milwaukee, Wis.), a Zinc chelator, or a direct MMP-2 inhibitor.

thrombin = biological target: T2, thrombin (Homo sapiens, UniProt P00734); test: Enzymatic assay of peptide cleavage by thrombin (HPLC)
T2 construct: tested with purified thrombin in PBS buffer
Text: In contrast, there was no cleavage when the serine at P1′ position was replaced by a proline residue.

MMP-2 [2] = biological target: T1, MMP-2; test: HPLC analysis of peptide substrates after incubation with MMP-2
Protocol: The synthesized probes contain a preferential MMP-2 peptide substrate. Two different peptide substrates were used in this study, an MMP-2 cleavable peptide ([…](FITC)C-NH2 (SEQ ID NO:10) (substrate sites are italicized)) and a scrambled control peptide. […] Although the latter control probe has a GVR leader sequence, it is too short to be recognized by MMP-2.
Characterization of probe. A number of experiments were conducted to characterize the peptide substrate and imaging probes. Initially we performed HPLC analysis of peptide and control substrates prior to and after incubation with 1 U of MMP-2. One unit is the activity that hydrolyzes 1 μg of type IV collagen within 1 hour using a commercially available assay (gelatinase 72 kD, Boehringer Mannheim, Indianapolis, Ind.). Reverse phase HPLC (Brownlee, Spheri-5, ODS, 30×4.6 mm), using 0.1% TFA and acetonitrile as elution buffers was performed (Rainin Instruments, Woburn, Mass.). […] The control probe contained the scrambled peptide. To determine the range of enzyme activation, a constant amount of imaging probe (26.6 pmol) was incubated with variable amounts of activated MMP-2 and fluorescence was determined after 24 hours. […]

purified thrombin = biological target: T3, purified thrombin (Homo sapiens, UniProt P00734); test: Probe activation with purified thrombin in PBS buffer, NIRF signal over time; conditions: thrombin added to solutions containing thrombin probe and hirudin, compared to hirudin-free solutions
T3 construct: tested with purified thrombin in PBS buffer
Protocol: The prepared probes were first tested with purified thrombin in PBS buffer as the NIRF signal was recorded over time. […] Following addition of thrombin, NIRF signal increased from 150 AU to 4100 AU within 20 minutes (27 fold increase). […] There was a clear dose response when the probe was incubated with different amounts of thrombin.

c1cnc2c(c1)ccc1cccnc12 [1,10 phenanthroline]
blocking of fluorescence activation (MMP-2 [1]): completely blocked

Gly-D-Phe-Pip-Arg-Pro-Gly-Gly-Gly-Gly-Lys(FITC)-Cys-NH2
stability against thrombin (thrombin; two hours following incubation with thrombin): remained intact

Gly-D-Phe-Pip-Arg-Ser-Gly-Gly-Gly-Gly-Lys(FITC)-Cys-NH2 (G[dF][Pip′]RSGGGGK(FITC)C-NH2) [C-terminal extended peptide]
cleavage by thrombin (thrombin; HPLC): cleaved into two major products

Gly-Pro-Leu-Gly-Val-Arg-Gly-Lys(FITC)-Cys-NH2 (GPLGVRGK(FITC)C-NH2; N-terminus assumed; SMILES CC(C)C[C@H](NC(=O)[C@@H]1CCCN1C(=O)CN)C(=O)NCC(=O)N[C@H](C(=O)N[C@@H](CCCNC(=N)N)C(=O)NCC(=O)N[C@@H](CCCCNC(=S)Nc1ccc2c(c1)C(=O)OC21c2ccc(O)cc2Oc2cc(O)ccc21)C(=O)N[C@@H](CS)C(N)=O)C(C)C)
cleavage by MMP-2 (MMP-2 [2]): cleavage of the former

hirudin
effect on thrombin activation of the thrombin probe (purified thrombin): significantly less NIRF signal
